Data published in PubChem BioAssay AID1963869 (Molecular Pharmacology Branch, DTP, NCI, 2024).

Test system: KRAS patient-derived spheroids with HUVEC/MSC, viability
Assay: Anticancer human tumor 323965-272-R-J2-PDC patient-derived pancreatic carcinoma cell line growth inhibition [KRAS2]
Conditions: for IC50: curve of first compound; for viability, T/C: stronger effect = lower value
Summary of the method: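 KRAS-mutant tumor cells were grown as spheroids with HUVEC endothelial cells and human MSCs as stroma. Targeted agents were tested alone and with KRAS pathway inhibitors. Doses started at or near clinical Cmax, or 10 microM, descending half-log.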

[1] = second compound 0.0316 µM, first compound 0.000316 µM
[2] = second compound 0.0316 µM, first compound 0.001 µM
[3] = second compound 0.0316 µM, first compound 0.00316 µM
[4] = second compound 0.0316 µM, first compound 0.01 µM
[5] = second compound 0.0316 µM, first compound 0.0316 µM
[6] = second compound 0.1 µM, first compound 0.000316 µM
[7] = second compound 0.1 µM, first compound 0.001 µM
[8] = second compound 0.1 µM, first compound 0.00316 µM
[9] = second compound 0.1 µM, first compound 0.01 µM
[10] = second compound 0.1 µM, first compound 0.0316 µM
[11] = second compound 0.316 µM, first compound 0.000316 µM
[12] = second compound 0.316 µM, first compound 0.001 µM
[13] = second compound 0.316 µM, first compound 0.00316 µM
[14] = second compound 0.316 µM, first compound 0.01 µM
[15] = second compound 0.316 µM, first compound 0.0316 µM
[16] = second compound 1 µM, first compound 0.000316 µM
[17] = second compound 1 µM, first compound 0.001 µM
[18] = second compound 1 µM, first compound 0.00316 µM
[19] = second compound 1 µM, first compound 0.01 µM
[20] = second compound 1 µM, first compound 0.0316 µM
[21] = second compound 3.16 µM, first compound 0.000316 µM
[22] = second compound 3.16 µM, first compound 0.001 µM
[23] = second compound 3.16 µM, first compound 0.00316 µM
[24] = second compound 3.16 µM, first compound 0.01 µM
[25] = second compound 3.16 µM, first compound 0.0316 µM
[26] = second compound 0.0316 µM, first compound 0.1 µM
[27] = second compound 0.1 µM, first compound 0.1 µM
[28] = second compound 0.316 µM, first compound 0.1 µM
[29] = second compound 1 µM, first compound 0.1 µM
[30] = second compound 3.16 µM, first compound 0.1 µM
[31] = second compound 0.0316 µM, first compound 0.316 µM
[32] = second compound 0.0316 µM, first compound 1 µM
[33] = second compound 0.0316 µM, first compound 3.16 µM
[34] = second compound 0.0316 µM, first compound 10 µM
[35] = second compound 0.1 µM, first compound 0.316 µM
[36] = second compound 0.1 µM, first compound 1 µM
[37] = second compound 0.1 µM, first compound 3.16 µM
[38] = second compound 0.1 µM, first compound 10 µM
[39] = second compound 0.316 µM, first compound 0.316 µM
[40] = second compound 0.316 µM, first compound 1 µM
[41] = second compound 0.316 µM, first compound 3.16 µM
[42] = second compound 0.316 µM, first compound 10 µM
[43] = second compound 1 µM, first compound 0.316 µM
[44] = second compound 1 µM, first compound 1 µM
[45] = second compound 1 µM, first compound 3.16 µM
[46] = second compound 1 µM, first compound 10 µM
[47] = second compound 3.16 µM, first compound 0.316 µM
[48] = second compound 3.16 µM, first compound 1 µM
[49] = second compound 3.16 µM, first compound 3.16 µM
[50] = second compound 3.16 µM, first compound 10 µM
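Note: spheroids exposed to agents for 7 days.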
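Throughout, for viability, T/C: 100% = DMSO vehicle control viability.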

CC(=O)Nc1cccc(-n2c(=O)n(C3CC3)c(=O)c3c(Nc4ccc(I)cc4F)n(C)c(=O)c(C)c32)c1 + C=CC(=O)N1CCN(c2nc(OCC3CCCN3C)nc3c2CCN(c2cccc4cccc(C)c24)C3)CC1CC#N
IC50 (second compound 0.0316 µM): 1.71 nM
IC50 (second compound 0.1 µM): 0.644 nM
IC50 (second compound 0.316 µM): 0.255 nM
IC50 (second compound 1 µM): 0.361 nM
IC50 (second compound 3.16 µM): < 0.1 nM
viability, T/C (second compound 0.0316 µM, first compound 0.0001 µM): 62.1%
viability, T/C [1]: 63.8%
viability, T/C [2]: 53.4%
viability, T/C [3]: 44%
viability, T/C [4]: 34.1%
viability, T/C [5]: 23.9%
viability, T/C (second compound 0.1 µM, first compound 0.0001 µM): 64.4%
viability, T/C [6]: 56.8%
viability, T/C [7]: 46.8%
viability, T/C [8]: 35.4%
viability, T/C [9]: 32.1%
viability, T/C [10]: 22.7%
viability, T/C (second compound 0.316 µM, first compound 0.0001 µM): 56.7%
viability, T/C [11]: 46.6%
viability, T/C [12]: 43.6%
viability, T/C [13]: 31.6%
viability, T/C [14]: 27.4%
viability, T/C [15]: 18.8%
viability, T/C (second compound 1 µM, first compound 0.0001 µM): 56.6%
viability, T/C [16]: 53.8%
viability, T/C [17]: 40%
viability, T/C [18]: 37.2%
viability, T/C [19]: 28.3%
viability, T/C [20]: 18.9%
viability, T/C (second compound 3.16 µM, first compound 0.0001 µM): 26%
viability, T/C [21]: 28.5%
viability, T/C [22]: 17%
viability, T/C [23]: 22.4%
viability, T/C [24]: 4.06%
viability, T/C [25]: 5.52%

CN(C)C/C=C/C(=O)Nc1cc2c(Nc3ccc(F)c(Cl)c3)ncnc2cc1O[C@H]1CCOC1 + C=CC(=O)N1CCN(c2nc(OCC3CCCN3C)nc3c2CCN(c2cccc4cccc(C)c24)C3)CC1CC#N
IC50 (second compound 0.0316 µM): 13 nM
IC50 (second compound 0.1 µM): 1.77 nM
IC50 (second compound 0.316 µM): 2.3 nM
IC50 (second compound 1 µM): 2.3 nM
IC50 (second compound 3.16 µM): < 0.316 nM
viability, T/C [1]: 75.1%
viability, T/C [2]: 66.2%
viability, T/C [3]: 55.9%
viability, T/C [4]: 49.6%
viability, T/C [5]: 49.9%
viability, T/C [26]: 47.9%
viability, T/C [6]: 66%
viability, T/C [7]: 52.5%
viability, T/C [8]: 48.4%
viability, T/C [9]: 42.4%
viability, T/C [10]: 40.9%
viability, T/C [27]: 42.3%
viability, T/C [11]: 56.2%
viability, T/C [12]: 51.1%
viability, T/C [13]: 53.2%
viability, T/C [14]: 43.1%
viability, T/C [15]: 39.2%
viability, T/C [28]: 39.1%
viability, T/C [16]: 62.5%
viability, T/C [17]: 52.4%
viability, T/C [18]: 52.6%
viability, T/C [19]: 41.9%
viability, T/C [20]: 40.7%
viability, T/C [29]: 42.5%
viability, T/C [21]: 36.8%
viability, T/C [22]: 34.9%
viability, T/C [23]: 19.4%
viability, T/C [24]: 17.3%
viability, T/C [25]: 17%
viability, T/C [30]: 14.7%

COC(=O)c1ccc2c(C(=Nc3ccc(N(C)C(=O)CN4CCN(C)CC4)cc3)c3ccccc3)c(O)[nH]c2c1 + C=CC(=O)N1CCN(c2nc(OCC3CCCN3C)nc3c2CCN(c2cccc4cccc(C)c24)C3)CC1CC#N
IC50 (second compound 0.0316 µM): 1640 nM
IC50 (second compound 0.1 µM): 993 nM
IC50 (second compound 0.316 µM): 388 nM
IC50 (second compound 1 µM): 873 nM
IC50 (second compound 3.16 µM): < 31.6 nM
viability, T/C [5]: 76.7%
viability, T/C [26]: 73.2%
viability, T/C [31]: 69.8%
viability, T/C [32]: 61.8%
viability, T/C [33]: 35.4%
viability, T/C [34]: 19.6%
viability, T/C [10]: 66.7%
viability, T/C [27]: 68.8%
viability, T/C [35]: 65.8%
viability, T/C [36]: 49.3%
viability, T/C [37]: 28.1%
viability, T/C [38]: 19.7%
viability, T/C [15]: 63.8%
viability, T/C [28]: 67.3%
viability, T/C [39]: 49.6%
viability, T/C [40]: 38.3%
viability, T/C [41]: 20.6%
viability, T/C [42]: 18.2%
viability, T/C [20]: 64.9%
viability, T/C [29]: 62.8%
viability, T/C [43]: 58.4%
viability, T/C [44]: 49.5%
viability, T/C [45]: 23.4%
viability, T/C [46]: 16.8%
viability, T/C [25]: 26.2%
viability, T/C [30]: 25.4%
viability, T/C [47]: 30%
viability, T/C [48]: 15.6%
viability, T/C [49]: 9.71%
viability, T/C [50]: 5.57%

COc1cc(Nc2ncc3c(n2)-c2ccc(Cl)cc2C(c2c(F)cccc2OC)=NC3)ccc1C(=O)O + C=CC(=O)N1CCN(c2nc(OCC3CCCN3C)nc3c2CCN(c2cccc4cccc(C)c24)C3)CC1CC#N
IC50 (second compound 0.0316 µM): < 31.6 nM
IC50 (second compound 0.1 µM): 49.4 nM
IC50 (second compound 0.316 µM): < 31.6 nM
IC50 (second compound 1 µM): < 31.6 nM
IC50 (second compound 3.16 µM): < 31.6 nM
viability, T/C [5]: 60.1%
viability, T/C [26]: 43.8%
viability, T/C [31]: 31.4%
viability, T/C [32]: 36.3%
viability, T/C [33]: 46%
viability, T/C [34]: 56.2%
viability, T/C [10]: 58.1%
viability, T/C [27]: 35.9%
viability, T/C [35]: 29.7%
viability, T/C [36]: 30.7%
viability, T/C [37]: 39.4%
viability, T/C [38]: 48.8%
viability, T/C [15]: 48.5%
viability, T/C [28]: 33.3%
viability, T/C [39]: 26.6%
viability, T/C [40]: 27.8%
viability, T/C [41]: 35.8%
viability, T/C [42]: 43.5%
viability, T/C [20]: 55.3%
viability, T/C [29]: 32.6%
viability, T/C [43]: 20.4%
viability, T/C [44]: 30.5%
viability, T/C [45]: 38.6%
viability, T/C [46]: 46.6%
viability, T/C [25]: 21.1%
viability, T/C [30]: 13.2%
viability, T/C [47]: 10.3%
viability, T/C [48]: 19%
viability, T/C [49]: 20.5%
viability, T/C [50]: 15.5%

COc1cc2nccc(Oc3ccc(NC(=O)C4(C(=O)Nc5ccc(F)cc5)CC4)cc3)c2cc1OC + C=CC(=O)N1CCN(c2nc(OCC3CCCN3C)nc3c2CCN(c2cccc4cccc(C)c24)C3)CC1CC#N
IC50 (second compound 0.0316 µM): > 10000 nM
IC50 (second compound 0.1 µM): > 10000 nM
IC50 (second compound 0.316 µM): > 10000 nM
IC50 (second compound 1 µM): > 10000 nM
IC50 (second compound 3.16 µM): < 31.6 nM
viability, T/C [5]: 69%
viability, T/C [26]: 71.3%
viability, T/C [31]: 77.3%
viability, T/C [32]: 76.8%
viability, T/C [33]: 74.6%
viability, T/C [34]: 80.3%
viability, T/C [10]: 55.9%
viability, T/C [27]: 62.1%
viability, T/C [35]: 64.6%
viability, T/C [36]: 67.3%
viability, T/C [37]: 65.9%
viability, T/C [38]: 64.3%
viability, T/C [15]: 58.9%
viability, T/C [28]: 59.6%
viability, T/C [39]: 65.3%
viability, T/C [40]: 68.8%
viability, T/C [41]: 64.8%
viability, T/C [42]: 70.1%
viability, T/C [20]: 59.3%
viability, T/C [29]: 63.5%
viability, T/C [43]: 62.8%
viability, T/C [44]: 69.9%
viability, T/C [45]: 66.5%
viability, T/C [46]: 58.5%
viability, T/C [25]: 21.5%
viability, T/C [30]: 20.1%
viability, T/C [47]: 8.93%
viability, T/C [48]: 3.74%
viability, T/C [49]: 3.65%
viability, T/C [50]: 0.28%

O=C(c1cc(Cc2n[nH]c(=O)c3ccccc23)ccc1F)N1CCN(C(=O)C2CC2)CC1 + C=CC(=O)N1CCN(c2nc(OCC3CCCN3C)nc3c2CCN(c2cccc4cccc(C)c24)C3)CC1CC#N
IC50 (second compound 0.0316 µM): 8150 nM
IC50 (second compound 0.1 µM): > 10000 nM
IC50 (second compound 0.316 µM): 4290 nM
IC50 (second compound 1 µM): 6240 nM
IC50 (second compound 3.16 µM): < 31.6 nM
viability, T/C [5]: 79.1%
viability, T/C [26]: 77.5%
viability, T/C [31]: 76.1%
viability, T/C [32]: 71.6%
viability, T/C [33]: 74.3%
viability, T/C [34]: 44.9%
viability, T/C [10]: 61.4%
viability, T/C [27]: 64.6%
viability, T/C [35]: 61.8%
viability, T/C [36]: 60.4%
viability, T/C [37]: 57.5%
viability, T/C [38]: 48.5%
viability, T/C [15]: 57.8%
viability, T/C [28]: 60.1%
viability, T/C [39]: 55.4%
viability, T/C [40]: 58%
viability, T/C [41]: 51.8%
viability, T/C [42]: 43.1%
viability, T/C [20]: 61.6%
viability, T/C [29]: 63.5%
viability, T/C [43]: 63.3%
viability, T/C [44]: 59.7%
viability, T/C [45]: 50.8%
viability, T/C [46]: 48.3%
viability, T/C [25]: 33.7%
viability, T/C [30]: 27.4%
viability, T/C [47]: 25.1%
viability, T/C [48]: 31.8%
viability, T/C [49]: 34.7%
viability, T/C [50]: 25.1%
